Measurements taken from BindingDB's records for doi:10.7270/Q2J67FB5 (Nmmlsc, 2007).

Molecular target: T1, fMet-Leu-Phe receptor (Homo sapiens, UniProt P21462)
T1 sequence (P21462 whole entry): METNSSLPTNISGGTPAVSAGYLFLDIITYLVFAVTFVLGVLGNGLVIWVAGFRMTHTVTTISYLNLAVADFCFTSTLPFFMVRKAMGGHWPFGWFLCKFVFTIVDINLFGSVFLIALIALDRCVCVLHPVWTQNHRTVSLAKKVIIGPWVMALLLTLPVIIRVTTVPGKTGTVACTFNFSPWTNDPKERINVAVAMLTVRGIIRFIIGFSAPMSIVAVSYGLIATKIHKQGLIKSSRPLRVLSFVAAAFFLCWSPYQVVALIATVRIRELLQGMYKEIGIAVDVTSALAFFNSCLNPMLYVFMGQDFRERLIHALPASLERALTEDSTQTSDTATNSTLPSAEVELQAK
Assay: FPR ligands, dose response (AID 519)

Structure (SMILES)	IC50
COCCCN1C(=O)C(=O)C(C(=O)c2ccco2)C1c1cccc(Br)c1 (centres undefined) [2-(3-bromophenyl)-3-(furan-2-carbonyl)-4-hydroxy-1-(3-methoxypropyl)-2H-pyrrol-5-one]	31.2 µM
COCCCN1C(=O)C(=O)C(C(=O)c2ccco2)C1c1ccccc1 (centres undefined) [3-(furan-2-carbonyl)-4-hydroxy-1-(3-methoxypropyl)-2-phenyl-2H-pyrrol-5-one]	14.5 µM
O=C1C(=O)N(CCN2CCOCC2)C(c2ccccc2)C1C(=O)c1cccs1 (centres undefined) [1-(2-morpholin-4-ylethyl)-4-oxidanyl-2-phenyl-3-thiophen-2-ylcarbonyl-2H-pyrrol-5-one]	> 66.7 µM
CCCCc1c(O)n(-c2ccccc2)n(-c2ccccc2)c1=O [3,5-Dioxo-1,2-diphenyl-4-n-butylpyrazolidine]	5.3 µM
COc1ccc(C2C(C(=O)c3ccccc3)C(=O)C(=O)N2CC(C)O)c(OC)c1 (centres undefined) [(4Z)-5-(2,4-dimethoxyphenyl)-4-[hydroxy(phenyl)methylene]-1-(2-hydroxypropyl)pyrrolidine-2,3-quinone]	38.6 µM
COc1ccc(C(=O)C2C(=O)C(=O)N(CCN3CCOCC3)C2c2ccc(C)cc2)cc1 (centres undefined) [(4Z)-4-[(4-methoxyphenyl)-oxidanyl-methylidene]-5-(4-methylphenyl)-1-(2-morpholin-4-ylethyl)pyrrolidine-2,3-dione]	> 66.7 µM
COc1ccccc1C1C(C(=O)c2ccccc2)C(=O)C(=O)N1CC(C)C (centres undefined) [(4Z)-4-[hydroxy(phenyl)methylene]-1-isobutyl-5-(2-methoxyphenyl)pyrrolidine-2,3-quinone]	5.5 µM
COCc1cc(C2C(C(=O)c3ccco3)C(=O)C(=O)N2CCOCCO)ccc1O (centres undefined) [3-(furan-2-carbonyl)-4-hydroxy-1-[2-(2-hydroxyethoxy)ethyl]-2-[4-hydroxy-3-(methoxymethyl)phenyl]-2H-pyrrol-5-one]	29.7 µM
O=C1CCCC(=O)C1C(C#Cc1ccccc1)C1C(=O)CCCC1=O [3-hydroxy-2-[1-(2-hydroxy-6-keto-cyclohexen-1-yl)-3-phenyl-prop-2-ynyl]cyclohex-2-en-1-one]	> 66.7 µM
COCCCN1C(=O)C(=O)C(C(=O)c2ccc(OC)cc2C)C1c1cccnc1 (centres undefined) [(4E)-4-[(4-methoxy-2-methyl-phenyl)-oxidanyl-methylidene]-1-(3-methoxypropyl)-5-pyridin-3-yl-pyrrolidine-2,3-dione]	> 66.7 µM
COC(=O)c1ccc(C2C(C(=O)c3ccc(OC)cc3)C(=O)C(=O)N2Cc2ccco2)cc1 (centres undefined) [4-[(3Z)-1-(2-furanylmethyl)-3-[hydroxy-(4-methoxyphenyl)methylidene]-4,5-dioxo-2-pyrrolidinyl]benzoic acid methyl ester]	43 µM
COc1ccccc1C1C(C(=O)c2ccccc2)C(=O)C(=O)N1CC(C)O (centres undefined) [(4Z)-4-[hydroxy(phenyl)methylene]-1-(2-hydroxypropyl)-5-(2-methoxyphenyl)pyrrolidine-2,3-quinone]	24.6 µM
Cc1ccc(C(=O)C2C(=O)C(=O)N(CCCn3ccnc3)C2c2ccc(OC(C)C)cc2)o1 (centres undefined) [1-(3-imidazol-1-ylpropyl)-3-(5-methylfuran-2-yl)carbonyl-4-oxidanyl-2-(4-propan-2-yloxyphenyl)-2H-pyrrol-5-one]	> 66.7 µM
COCCN1C(=O)C(=O)C(C(=O)c2cccs2)C1c1ccccc1 (centres undefined) [1-(2-methoxyethyl)-4-oxidanyl-2-phenyl-3-thiophen-2-ylcarbonyl-2H-pyrrol-5-one]	> 66.7 µM
CCOc1cccc(C(=O)C2C(=O)C(=O)N(Cc3cccnc3)C2c2ccco2)c1 (centres undefined) [(4Z)-4-[(3-ethoxyphenyl)-hydroxymethylidene]-5-(2-furanyl)-1-(3-pyridinylmethyl)pyrrolidine-2,3-dione]	> 66.7 µM
Cc1ccc(C(=O)C2C(=O)C(=O)N(Cc3ccccc3)C2c2cccnc2)o1 (centres undefined) [1-benzyl-3-hydroxy-4-[(5-methylfuran-2-yl)carbonyl]-5-(pyridin-3-yl)-2,5-dihydro-1H-pyrrol-2-one]	> 66.7 µM
CCCOc1ccc(C2C(C(=O)c3ccco3)C(=O)C(=O)N2CCCn2ccnc2)cc1 (centres undefined) [3-(furan-2-carbonyl)-4-hydroxy-1-(3-imidazol-1-ylpropyl)-2-(4-propoxyphenyl)-2H-pyrrol-5-one]	> 66.7 µM
COc1ccc(OC)c(C2C(C(=O)c3cccs3)C(=O)C(=O)N2c2cc(C)on2)c1 (centres undefined) [2-(2,5-dimethoxyphenyl)-1-(5-methyl-1,2-oxazol-3-yl)-4-oxidanyl-3-thiophen-2-ylcarbonyl-2H-pyrrol-5-one]	> 66.7 µM
CC1Cc2cc(C(=O)C3C(=O)C(=O)N(CCN4CCOCC4)C3c3ccccc3F)ccc2O1 (centres undefined) [(4E)-5-(2-fluorophenyl)-4-[(2-methyl-2,3-dihydro-1-benzofuran-5-yl)-oxidanyl-methylidene]-1-(2-morpholin-4-ylethyl)pyrrolidine-2,3-dione]	> 66.7 µM
CCCOc1ccc(C2C(C(=O)c3ccc(C)o3)C(=O)C(=O)N2Cc2cccnc2)cc1 (centres undefined) [3-(5-methylfuran-2-yl)carbonyl-4-oxidanyl-2-(4-propoxyphenyl)-1-(pyridin-3-ylmethyl)-2H-pyrrol-5-one]	42.7 µM
CC1=C(C(=O)OC(C)C)[C@]2(C(=O)N(CC(N)=O)c3ccccc32)C(C#N)C(=N)O1 (stereo partly drawn) [(3R)-6'-amino-1-(2-amino-2-keto-ethyl)-5'-cyano-2-keto-2'-methyl-spiro[indoline-3,4'-pyran]-3'-carboxylic acid isopropyl ester]	> 66.7 µM
COc1ccc(OC)c(C2C(C(=O)c3ccco3)C(=O)C(=O)N2CCCN2CCOCC2)c1 (centres undefined) [2-(2,5-dimethoxyphenyl)-3-(furan-2-carbonyl)-4-hydroxy-1-(3-morpholin-4-ylpropyl)-2H-pyrrol-5-one]	26.4 µM
O=C1C(=O)N(Cc2ccccc2)C(c2cccnc2)C1C(=O)c1ccco1 (centres undefined) [1-Benzyl-4-(furan-2-carbonyl)-3-hydroxy-5-pyridin-3-yl-1,5-dihydro-pyrrol-2-one]	30.5 µM
Cc1ccc(C(=O)C2C(=O)C(=O)N(c3cc(C)on3)C2c2cccc(Br)c2)cc1 (centres undefined) [(4E)-5-(3-bromophenyl)-1-(5-methyl-1,2-oxazol-3-yl)-4-[(4-methylphenyl)-oxidanyl-methylidene]pyrrolidine-2,3-dione]	> 66.7 µM
C=C(c1ccc(Br)cc1)c1sc(N2CCCC2)nc1O [(5Z)-5-[1-(4-bromophenyl)ethylidene]-2-(1-pyrrolidinyl)-4-thiazolone]	> 66.7 µM
CCOc1cc(C2C(C(=O)c3ccc(C)o3)C(=O)C(=O)N2CCc2ccccc2)ccc1O (centres undefined) [2-(3-ethoxy-4-hydroxyphenyl)-4-hydroxy-3-(5-methylfuran-2-carbonyl)-1-(2-phenylethyl)-2H-pyrrol-5-one]	30.4 µM
O=C1C(=O)N(CC2CCCO2)C(c2cccnc2)C1C(=O)c1ccco1 (centres undefined) [3-(furan-2-carbonyl)-4-hydroxy-1-(oxolan-2-ylmethyl)-2-pyridin-3-yl-2H-pyrrol-5-one]	54.8 µM

The next lines start with the values.

IC50	Structure (SMILES)
11.5 µM	O=c1c(C23CC4CC(CC(C4)C2)C3)c(O)n(-c2ccccc2)n1-c1ccccc1 [MLS000526352]
19.7 µM	COc1ccccc1C1C(C(=O)c2ccccc2)C(=O)C(=O)N1CCO (centres undefined) [(4Z)-1-(2-hydroxyethyl)-4-[hydroxy(phenyl)methylene]-5-(2-methoxyphenyl)pyrrolidine-2,3-quinone]
36.9 µM	COc1ccc(C2C(C(=O)c3ccco3)C(=O)C(=O)N2CCc2ccccc2)cc1OC (centres undefined) [2-(3,4-dimethoxyphenyl)-3-(furan-2-carbonyl)-4-hydroxy-1-(2-phenylethyl)-2H-pyrrol-5-one]
> 66.7 µM	CC1=NC(C)=C(C#N)C(c2ccc3ncccc3c2)C1C#N (centres undefined)
> 66.7 µM	Cc1nc2c(C)cccn2c1C(=O)C1C(=O)C(=O)N(CCN2CCOCC2)C1c1cccs1 (centres undefined) [(4E)-4-[(2,8-dimethyl-3-imidazo[1,2-a]pyridinyl)-hydroxymethylidene]-1-[2-(4-morpholinyl)ethyl]-5-thiophen-2-ylpyrrolidine-2,3-dione]
47.7 µM	COc1cc(C2C(C(=O)c3ccco3)C(=O)C(=O)N2c2cc(C)on2)cc(Br)c1O (centres undefined) [2-(3-bromanyl-5-methoxy-4-oxidanyl-phenyl)-3-(furan-2-ylcarbonyl)-1-(5-methyl-1,2-oxazol-3-yl)-4-oxidanyl-2H-pyrrol-5-one]
> 66.7 µM	Cc1nc(C)c(C(=O)C2C(=O)C(=O)N(CCCn3ccnc3)C2c2ccc(Cl)cc2)s1 (centres undefined) [2-(4-chlorophenyl)-3-(2,4-dimethyl-1,3-thiazole-5-carbonyl)-4-hydroxy-1-(3-imidazol-1-ylpropyl)-2H-pyrrol-5-one]
57.7 µM	CCOc1ccc(C(=O)C2C(=O)C(=O)N(c3nc(C)c(C)s3)C2c2ccco2)cc1 (centres undefined) [(4Z)-1-(4,5-dimethyl-1,3-thiazol-2-yl)-4-[(4-ethoxyphenyl)-hydroxymethylidene]-5-(furan-2-yl)pyrrolidine-2,3-dione]
21.4 µM	O=C1C(=O)N(CCOCCO)C(c2cccs2)C1C(=O)c1cccs1 (centres undefined) [1-[2-(2-hydroxyethyloxy)ethyl]-4-oxidanyl-2-thiophen-2-yl-3-thiophen-2-ylcarbonyl-2H-pyrrol-5-one]
57.1 µM	CCOc1ccc(C2C(C(=O)c3cccs3)C(=O)C(=O)N2CCCn2ccnc2)cc1 (centres undefined) [2-(4-ethoxyphenyl)-1-(3-imidazol-1-ylpropyl)-4-oxidanyl-3-thiophen-2-ylcarbonyl-2H-pyrrol-5-one]
9.7 µM	C=CCOc1ccc(C2C(C(=O)c3ccco3)C(=O)C(=O)N2Cc2cccnc2)cc1 (centres undefined) [3-(furan-2-carbonyl)-4-hydroxy-2-(4-prop-2-enoxyphenyl)-1-(pyridin-3-ylmethyl)-2H-pyrrol-5-one]
13.5 µM	CCOc1cccc(C(=O)C2C(=O)C(=O)N(CCOC)C2c2ccc(C)o2)c1 (centres undefined) [(4Z)-4-[(3-ethoxyphenyl)-hydroxymethylidene]-1-(2-methoxyethyl)-5-(5-methyl-2-furanyl)pyrrolidine-2,3-dione]
